Source: patent US9173840B2, “Multifunctional self-assembling polymeric nanosystems” (Northeastern University, priority 2008, dated 2015)
pIC50: −log10 of the molar value. Where two headings read alike, the source gives them in different places.

How the values were obtained:
KHOSR2 cells [1] = test: Fluorescence microscopy of cellular doxorubicin uptake; assay type: cell-based, human; conditions: 3 hr incubation
Experimental: For cellular uptake studies, KHOS and KHOSR2 cells were seeded at densities of 5×10^5 cells/well in 6 well plates. MDR1 siRNA was applied to a well of KHOSR2 and incubated for 48 h. Following the incubation, doxorubicin was added to each well and was incubated for additional 3 hr. After incubation, the cells were washed, suspended in fresh RPMI 1640, then visualized on a Nikon Eclipse Ti-U fluorescence microscope equipped with a SPOT RT digital camera (Diagnostic Instruments, Inc., Sterling Heights, Mich.). Fluorescence intensity and cellular localization was analyzed at a wavelength of 488 nm in triplicate in random, different fields.
Cellular uptake studies were based on the fluorescence microscopic procedures of Venne et al. (Cancer Res. 56:3626-3629 (1996)). KHOS and KHOSR2 cells were seeded at densities of 5×10^5 cells/well in 6 well plates and incubated for 24 hr to allow cell attachment. […] After incubation, the cells were washed and resuspended with PBS and were then visualized on a Nikon Eclipse Ti-U fluorescence microscope (Nikon Corp.) equipped with a SPOT RT digital camera (Diagnostic Instruments, Inc., Sterling Heights, Mich.). Fluorescence intensity and cellular localization was analyzed at a wavelength of 488 nm in triplicate different fields at random.

U-2OS cells = test: In vitro cytotoxicity MTT assay, U-2OS; conditions: Homo sapiens, U2OS, read-out: IC50 anti-proliferative activity
PARP = test: Cellular apoptosis assay: cleavage of PARP by Western blot; assay type: cell-based, human; conditions: KHOS and KHOSR2
Text: Whole-cell lysates were immunoblotted with specific antibodies to PARP (Cell Signaling Technology) and its cleavage products. Positive immunoreactions were detected using Super Signal® West Pico Chemiluminescent Substrate. Bands were semiquantified by reverse image scanning densitometry with PhotoShop 7.0 (Adobe, San Jose, Calif.). An area of the gel image that was devoid of signal was assigned to be the background value. Each band of the protein representing cleaved PARP from KHOS or KHOSR2 treated with either doxorubicin, alone, or nanoparticle-loaded with doxorubicin at various concentrations, were analyzed for the density beyond background level. To ensure that the loading of the protein was equal and differences were not being observed because of one specimen having more protein than another, the band corresponding to β-actin was determined for each protein. The density of the protein band was normalized to the β-actin band for the protein and the ratio of the cleaved PARP was normalized by dividing by the ratio of the actin corresponding to each cleaved PARP.

U-2OSR2 cells = test: In vitro cytotoxicity MTT assay, U-2OSR2; assay type: cell-based; conditions: Homo sapiens
KHOSR2 cells [2] = test: In vitro cytotoxicity MTT assay, KHOSR2; conditions: Homo sapiens

Question: How did the “subcellular distribution of doxorubicin fluorescence” value (KHOSR2 cells [1]; drug-resistant cell line, Example 2) turn out when `COc1cccc2c1C(=O)c1c(O)c3c(c(O)c1C2=O)C[C@@](O)(C(=O)CO)C[C@@H]3O[C@H]1C[C@H](N)[C@H](O)[C@H](C)O1` [doxorubicin] was run?
Answer: The value was “primarily concentrated in the cytoplasm”.

Question: What about the “subcellular distribution of doxorubicin fluorescence, free doxorubicin” value (KHOSR2 cells [1]; drug-resistant osteosarcoma cells) of the same molecule?
Answer: The value was “primarily concentrated in the cytoplasm”.

Question: What about the pIC50 (U-2OS cells) of the same molecule?
Answer: The pIC50 was 6.52.

Question: And the “cleavage of PARP / apoptosis induction” value (PARP)?
Answer: The value was “higher concentrations of doxorubicin, alone, induced apoptosis”.

Question: What about the pIC50 (U-2OSR2 cells; U-2OSR2, Example 1, nanoparticles loaded with 100 nM MDR1 siRNA, read-out: IC50 for doxorubicin co-treated with the MDR1 siRNA-loaded nanoparticles) of the same molecule?
Answer: Its pIC50 is 7.22.

Question: And the pIC50 (U-2OSR2 cells; U-2OSR2, Example 1, read-out: IC50 for doxorubicin, alone)?
Answer: The pIC50 was 5.22.

Question: What about the pIC50 (U-2OSR2 cells; U-2OSR2, Example 2, FIG. 17D, read-out: IC50 anti-proliferative activity) of the same molecule?
Answer: The pIC50 was 5.22.

Question: What about the pIC50 (KHOSR2 cells [2]; MDR1, read-out: IC50 of doxorubicin co-treated with MDR1 siRNA-loaded nanoparticles) of the same molecule?
Answer: The pIC50 was 7.00.

Question: What about the pIC50 (KHOSR2 cells [2]; read-out: IC50 anti-proliferative activity) of the same molecule?
Answer: The pIC50 was 5.52.

Question: And the pIC50 (KHOSR2 cells [2]; read-out: IC50 of doxorubicin, alone)?
Answer: The pIC50 was 5.00.
